In the experiment the test system is AKR/Lw mice, AKR lymphoma ip, median survival T/C. The experiment can be described thus: NCI In Vivo Anticancer Drug Screen. Data for tumor model Lymphoma AKR (Transplanted) (intraperitoneal) in AKR/Lw mice. Conditions: endpoint: median survival time, higher = longer survival. As for the experimental part:
The antitumor activity of compounds was measured in mice bearing transplantable tumors. Survival or tumor size were measured and the results are expressed as the measurement made in the treated group (T) divided by the measurement made in the vehicle treated control group (C). The tumor model used in this assay is Lymphoma AKR (Transplanted) (intraperitoneal) in AKR/Lw mice

[1] abbreviates: dose: 100.0 mg/kg/injection, schedule: Q01DX001 (ip), vehicle: Klucel (hydroxypropylcellulose) (HPC).
Where [2] appears, read: dose: 200.0 mg/kg/injection, schedule: Q01DX001 (ip), vehicle: Klucel (hydroxypropylcellulose) (HPC).
Where [3] appears, read: dose: 400.0 mg/kg/injection, schedule: Q01DX001 (ip), vehicle: Klucel (hydroxypropylcellulose) (HPC).

“And” between values parts separate entries of the source, which are not always exact repeats. Equal entries are not always repeated. Inconclusive results and toxic doses are left out.

On to `CCCCCCCCCCCCCCCC(=O)OCC1OC(n2ccc(N)nc2=O)C(O)C1O` (configuration not stated), for which the T/C reads like this: (dose: 0.07 mg/kg/injection, schedule: Q01DX015 (ip), vehicle: saline with Tween-80) 150 % of control; (dose: 0.15 mg/kg/injection, schedule: Q01DX015 (ip), vehicle: saline with Tween-80) 115 % of control; (dose: 0.31 mg/kg/injection, schedule: Q01DX010 (ip), vehicle: saline with Tween-80) 110 % of control; (dose: 0.62 mg/kg/injection, schedule: Q01DX010 (ip), vehicle: saline with Tween-80) 110 % of control; (dose: 0.62 mg/kg/injection, schedule: Q01DX015 (ip), vehicle: saline with Tween-80) 375 % of control; (dose: 1.25 mg/kg/injection, schedule: Q01DX015 (ip), vehicle: saline with Tween-80) 165 % of control. In addition, the T/C reads like this: (dose: 2.5 mg/kg/injection, schedule: Q01DX015 (ip), vehicle: saline with Tween-80) 225 % of control; (dose: 3.12 mg/kg/injection, schedule: Q01DX001 (ip), vehicle: saline with Tween-80) 111 % of control; (dose: 3.75 mg/kg/injection, schedule: Q01DX005 (ip), vehicle: saline with Tween-80) 100 % of control and 116 % of control; (dose: 3.75 mg/kg/injection, schedule: Q01DX015 (ip), vehicle: saline with Tween-80) 153 % of control; (dose: 5.0 mg/kg/injection, schedule: Q01DX010 (ip), vehicle: saline with Tween-80) 166 % of control and 218 % of control; (dose: 5.0 mg/kg/injection, schedule: Q01DX015 (ip), vehicle: saline with Tween-80) 212 % of control. In addition, the T/C is 102 % of control (dose: 6.25 mg/kg/injection, schedule: Q01DX001 (ip), vehicle: saline with Tween-80); 112 % of control (dose: 6.25 mg/kg/injection, schedule: Q14DX003 (ip), vehicle: saline with Tween-80); 200 % of control (dose: 7.5 mg/kg/injection, schedule: Q01DX015 (ip), vehicle: saline with Tween-80); 180 % of control and 261 % of control (dose: 10.0 mg/kg/injection, schedule: Q01DX010 (ip), vehicle: saline with Tween-80); 375 % of control (dose: 10.0 mg/kg/injection, schedule: Q01DX015 (ip), vehicle: saline with Tween-80); 108 % of control (dose: 12.5 mg/kg/injection, schedule: Q01DX001 (ip), vehicle: saline with Tween-80). Also, the T/C runs as follows: (dose: 12.5 mg/kg/injection, schedule: Q09DX002 (ip), vehicle: saline with Tween-80) 113 % of control; (dose: 12.5 mg/kg/injection, schedule: Q14DX003 (ip), vehicle: saline with Tween-80) 155 % of control; (dose: 12.5 mg/kg/injection, schedule: Q14DX004 (ip), vehicle: saline with Tween-80) 122 % of control; (dose: 15.0 mg/kg/injection, schedule: Q01DX015 (ip), vehicle: saline with Tween-80) 250 % of control; (dose: 18.8 mg/kg/injection, schedule: Q01DX001 (ip), vehicle: saline with Tween-80) 121 % of control; (dose: 25.0 mg/kg/injection, schedule: Q09DX002 (ip), vehicle: saline with Tween-80) 121 % of control. Moreover, the T/C is, setting by setting: (dose: 25.0 mg/kg/injection, schedule: Q14DX003 (ip), vehicle: saline with Tween-80) 203 % of control; (dose: 30.0 mg/kg/injection, schedule: Q01DX015 (ip), vehicle: saline with Tween-80) 70 % of control; (dose: 45.0 mg/kg/injection, schedule: Q01DX005 (ip), vehicle: saline with Tween-80) 61 % of control and 110 % of control; (dose: 50.0 mg/kg/injection, schedule: Q09DX002 (ip), vehicle: saline with Tween-80) 172 % of control; (dose: 50.0 mg/kg/injection, schedule: Q14DX003 (ip), vehicle: saline with Tween-80) 183 % of control and 343 % of control; (dose: 100.0 mg/kg/injection, schedule: Q14DX003 (ip), vehicle: saline with Tween-80) 381 % of control. In addition, the T/C was 182 % of control (dose: 100.0 mg/kg/injection, schedule: Q14DX004 (ip), vehicle: saline with Tween-80) and 375 % of control (dose: 150.0 mg/kg/injection, schedule: Q14DX003 (ip), vehicle: saline with Tween-80).
For the molecule `Brc1cc(Br)c(-c2c(Br)cc(Br)cc2Br)c(Br)c1`, the T/C is 103 % of control under setting [1], 100 % of control under setting [2] and 96 % of control under setting [3].
Turning to `O=C(/C=C/c1cccc([N+](=O)[O-])c1)NCCBr`, the T/C is, setting by setting: under setting [1], 102 % of control; under setting [2], 104 % of control; under setting [3], 86 % of control.
For the molecule `COc1ccccc1Oc1ccc(N=Cc2ccc(C)cc2)cc1`, the T/C runs as follows: under setting [1], 93 % of control; (dose: 100.0 mg/kg/injection, schedule: Q04DX003 (ip), vehicle: Klucel (hydroxypropylcellulose) (HPC)) 93 % of control; under setting [2], 100 % of control; (dose: 200.0 mg/kg/injection, schedule: Q04DX003 (ip), vehicle: Klucel (hydroxypropylcellulose) (HPC)) 97 % of control; under setting [3], 93 % of control; (dose: 400.0 mg/kg/injection, schedule: Q04DX003 (ip), vehicle: Klucel (hydroxypropylcellulose) (HPC)) 102 % of control.
In the case of `CN(C)C(C)(C)CNc1ccc(C(=O)O)cc1`, the T/C by setting is: (dose: 25.0 mg/kg/injection, schedule: Q01DX001 (ip), vehicle: saline) 88 % of control; (dose: 50.0 mg/kg/injection, schedule: Q01DX001 (ip), vehicle: saline) 91 % of control and 95 % of control; (dose: 100.0 mg/kg/injection, schedule: Q01DX001 (ip), vehicle: saline) 97 % of control and 91 % of control.

Source of the values: PubChem BioAssay AID190 (DTP/NCI, 2004).
